Reference: US20100240746A1, “STEREOISOMERS OF TRICYCLODECAN-9-YL-XANTHOGENATE” (LUMAVITA AG, priority 2007, published 2010)
Values after ≈ are worked out from the molar mass of the structure shown.

How the values were obtained:
[1] = system: herpes simplex virus type 2; test: HSV-2 inhibition in Calu-6 cells, plaque titration on RITA cells; format: cell-based; conditions: Human alphaherpesvirus 2, Calu-6; 48 hr, 50 plaque forming units per well
Protocol: (§1) Calu-6 cells and RITA cells were grown in DMEM cell culture medium containing 10% fetal calf serum in CO2 incubator under 5% CO2 at 37° C. with 100% humidity.
For HSV-2 inhibition, Calu-6 cells were seeded in 96 well plates at a density of 3×10^6 cells per plate in the DMEM cell culture medium. The plates were incubated at 37° C. in the presence of 5% CO2 for 24 hr. The DMEM cell culture medium in the plates was removed and the cells were infected with Herpes simplex virus type-2 at 50 plaque forming units per well. After incubation at 37° C. for 60 min, test compounds in DMEM cell culture medium at a series of concentrations were added. The plates were incubated at 37° C. in the presence of 5% CO2 for 48 hr. The plates were frozen at −20° C. prior to further analysis. After thawing at room temperature, supernatants containing infectious virus particles were prepared by centrifuging the supernatant from each well at 18,000 g at 4° C. for 5 min. The supernatant was further diluted before assay.
RITA cells were seeded in 24 well Linbra plates at a density of 4×10^6 cells per plate in 2 mL of DMEM cell culture medium. The plates were incubated at 37° C. in the presence of 5% CO2 for 24 hr. […] The number of plaques was determined macroscopically. […] The therapeutic index was also calculated for each compound by dividing LD50 with IC50.

[2] = system: bovine papilloma virus type I (BPV-1)-transformed HEF (HEF-BPV); test: BPV-infected hamster embryo fibroblasts (HEF) cell proliferation assay; format: cell-based; conditions: 72 hr incubation
Protocol: Briefly, hamster embryo fibroblasts and bovine papilloma virus type I (BPV-1)-transformed HEF (HEF-BPV) were grown in Eagle's basal medium. […] and HEF cells were seeded in 96-well plates at a density of 0.5×10^6 cells per plate in DMEM cell culture medium containing 10% fetal calf serum at pH 6.8. The plates were then incubated in the presence of 5% CO2 in 100% humidity at 37° C. After 6 hr, the cell culture medium in the plates was exchanged with fresh DMEM cell culture medium containing test compounds at a series of concentrations. The plates were incubated at 37° C. for additional 72 hr. Cells in the plates were then washed with PBS, fixed with 3% formaldehyde solution containing 0.9% NaCl for 1 min, washed by water for 10 sec, and dried overnight. For detection, the plates were stained with crystal violet solution for 5 min at room temperature, washed 5 times with water, and dried at room temperature overnight. After adding ethanol/acetic acid (99:1, v/v, […]) to each well, the plates were measured at 595 nm using an ELISA reader.

[3] = biological target: T1, phosphatidylcholine-specific phospholipase C (PC-PLC) (Bacillus cereus, UniProt P09598); test: Amplex Red phosphatidylcholine-specific phospholipase C (PC-PLC) inhibition assay; format: biochemical, B. cereus; conditions: 30 min at 37° C., triplicate; read-out: IC50 (converted)
T1 construct: purchased Invitrogen
T1 sequence (P09598 39-283 limits assumed): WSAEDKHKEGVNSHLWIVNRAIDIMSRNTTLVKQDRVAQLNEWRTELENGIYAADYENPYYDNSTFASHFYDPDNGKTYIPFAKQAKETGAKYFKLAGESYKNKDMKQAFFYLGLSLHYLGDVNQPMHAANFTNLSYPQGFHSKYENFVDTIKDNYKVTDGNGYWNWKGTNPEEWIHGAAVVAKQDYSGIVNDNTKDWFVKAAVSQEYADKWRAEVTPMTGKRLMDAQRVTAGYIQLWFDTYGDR
Protocol: The inhibitory activities of optically active potassium salts of (+)- and (−)-O-exo/C-exo-tricyclo [5.2.1.0^2,6]-dec-9-yl-xanthic acid 1A ((+)- and (−)-enantiomers 1A) against phosphatidylcholine-specific phospholipase C were evaluated, together with D609 and potassium salt of racemic O-exo/C-exo xanthic acid 1A (racemic 1A), using Amplex Red phosphatidylcholine-specific phospholipase C(PC-PLC) assay kit, which was obtained from Invitrogen (Calsbad, Calif.). D609 was obtained from Sigma Aldrich.
An Amplex Red stock solution (˜20 mM), a working reaction buffer, and a horseradish peroxidase stock solution (200 U/mL), a H2O2 working solution (20 mM), a choline oxidate stock solution (20 U/mL), an alkaline phosphatase stock solution (400 U/mL), and a B. cereus PC-PLC stock solution (10 U/mL) were prepared according to the instruction of the assay kit. The stock solution (100 mg/mL) for each test compound was also prepared by dissolving the compound in water 2 hr prior to the start of the experiment.
A working Amplex Red/HRP/lecithin solution was prepared by adding 200 μL of Amplex Red reagent stock solution, 100 μL of HRP stock solution, 200 μL of alkaline phosphatase stock solution, 100 μL of choline oxidase stock solution, and 78 μL of the lecithin solution to […] of the working reaction buffer. PC-PLC solution (0.2 U/mL) was prepared by diluting the PC-PLC stock solution with the working reaction buffer to the desired concentration.
The test compound (25 μL) at a serious of concentrations was pipetted into a 96 well plate. For uninhibited PC-PLC controls and non-PC-PLC controls, 25 μL of water was added. After the addition of 50 μL of the Amplex Red/HRP/lecithin working solution, the reaction was initiated by adding 25 μL of PC-PLC solution to each well. To the non-PC-PLC controls, 25 μL of water was added instead of PC-PLC solution. The experiment was performed in triplicate. The reactions were protected from light. After incubated for 30 min at 37° C., the reactions were measured with a fluorescence microplate reader using excitation at 550 nm and emission detection at 590 nm. The fluorescent data obtained were corrected for background fluorescence by subtracting the values obtained from the non-PC-PLC controls.

[4] = system: Calu-6 cells; test: Cytotoxicity assay in Calu-6 cells (crystal violet); format: cell-based; conditions: 48 hr
Protocol: as §1
For cytotoxicity assay, Calu-6 cells were seeded in 96 well plates at a density of 3×10^6 cells per plate in the DMEM cell culture medium. The plates were incubated at 37° C. in the presence of 5% CO2 for 24 hr. The DMEM cell culture medium in the plates was exchanged with fresh DMEM cell culture medium containing test compounds at a series of concentrations. The plates were incubated at 37° C. in the presence of 5% CO2 for 48 hr. The plates were then washed with PBS, fixed with 3% formaldehyde solution containing 0.9% NaCl for 1 min, washed by water for 10 sec, and dried overnight. For detection, the plates were stained with crystal violet solution for 5 min at room temperature, washed 5 times with water, and dried at room temperature overnight. After adding ethanol/acetic acid (99:1, v/v, […]) to each well, the plates were measured at 595 nm using an ELISA reader. A dose response curve was obtained for each compound tested by plotting the mean values of the optical densities against compound concentration.

S=C(S)O[C@@H]1C[C@@H]2C[C@H]1[C@H]1CCC[C@@H]21 (racemic) [Racemic 1A, racemic O-exo/C-exo xanthic acid 1A, reference compound]
IC50 [1]: 17.2 ± 5.95 µg/mL (≈ 75.2 µM) | IC50 [2]: 14.55 ± 0.07 µg/mL (≈ 63.7 µM) | IC50 [3]: 44 µM | LD50 [4]: 96.93 ± 7.12 µg/mL
